According to PubChem BioAssay (NCI):
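Method: 48-hour compound exposure of cells in 96-well plates, five concentrations, linear interpolation of endpoints. TGI: total growth inhibition.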

Key:
Experiment in all cases: NCI-60 cell line screen, 48 h
786-0 renal = system: 786-0 renal
A498 renal = system: A498 renal
A549 NSCLC = system: A549 NSCLC
ACHN renal = system: ACHN renal
CCRF-CEM leukemia = system: CCRF-CEM leukemia
COLO 205 colon = system: COLO 205 colon
DLD-1 colon = system: DLD-1 colon
DMS 114 small cell lung = system: DMS 114 small cell lung
DMS 273 small cell lung = system: DMS 273 small cell lung
EKVX NSCLC = system: EKVX NSCLC
HCC-2998 colon = system: HCC-2998 colon
HCT-116 colon = system: HCT-116 colon
HCT-15 colon = system: HCT-15 colon
HL-60(TB) leukemia = system: HL-60(TB) leukemia
HOP-18 NSCLC = system: HOP-18 NSCLC
HOP-62 NSCLC = system: HOP-62 NSCLC
HOP-92 NSCLC = system: HOP-92 NSCLC
HT29 colon = system: HT29 colon
IGROV1 ovarian = system: IGROV1 ovarian
K-562 leukemia = system: K-562 leukemia
KM20L2 colon = system: KM20L2 colon
LXFL 529 NSCLC = system: LXFL 529 NSCLC
M14 melanoma = system: M14 melanoma
M19-MEL melanoma = system: M19-MEL melanoma
MALME-3M melanoma = system: MALME-3M melanoma
MOLT-4 leukemia = system: MOLT-4 leukemia
NCI-H226 lung = system: NCI-H226 lung
NCI-H23 lung = system: NCI-H23 lung
NCI-H522 lung = system: NCI-H522 lung
OVCAR-4 ovarian = system: OVCAR-4 ovarian
OVCAR-8 ovarian = system: OVCAR-8 ovarian
RPMI-8226 leukemia = system: RPMI-8226 leukemia
RXF 393 renal = system: RXF 393 renal
SF-268 CNS = system: SF-268 CNS
SF-295 CNS = system: SF-295 CNS
SF-539 CNS = system: SF-539 CNS
SK-MEL-28 melanoma = system: SK-MEL-28 melanoma
SK-MEL-5 melanoma = system: SK-MEL-5 melanoma
SK-OV-3 ovarian = system: SK-OV-3 ovarian
SN12C renal = system: SN12C renal
SNB-19 CNS = system: SNB-19 CNS
SNB-75 CNS = system: SNB-75 CNS
SNB-78 CNS = system: SNB-78 CNS
SR leukemia = system: SR leukemia
SW-620 colon = system: SW-620 colon
U251 CNS = system: U251 CNS
UACC-257 melanoma = system: UACC-257 melanoma
UACC-62 melanoma = system: UACC-62 melanoma
UO-31 renal = system: UO-31 renal
CAKI-1 renal = system: CAKI-1 renal
KM12 colon = system: KM12 colon
LOX IMVI melanoma = system: LOX IMVI melanoma
NCI-H460 lung = system: NCI-H460 lung
OVCAR-3 ovarian = system: OVCAR-3 ovarian
OVCAR-5 ovarian = system: OVCAR-5 ovarian
SK-MEL-2 melanoma = system: SK-MEL-2 melanoma
TK-10 renal = system: TK-10 renal
XF 498 CNS = system: XF 498 CNS

Measured: TGI

C=CCOC(C)n1c(C)cc(=O)n(C(C)OCC=C)c1=O (stereo not given)
not listed: CAKI-1 renal | KM12 colon | LOX IMVI melanoma | NCI-H460 lung | OVCAR-3 ovarian | OVCAR-5 ovarian | SK-MEL-2 melanoma | TK-10 renal | XF 498 CNS
> 100 µM: all other assays above

CCCCCCCCCCCCCCCC/C(C(=O)OC)=C(/O)C(=O)OCC
84.9 µM: HOP-92 NSCLC
not listed: EKVX NSCLC | XF 498 CNS
> 100 µM: all other assays above

Nc1nc(-c2ccco2)cc(-c2ccco2)n1
not listed: A498 renal | DLD-1 colon | HCC-2998 colon | HOP-18 NSCLC | HOP-92 NSCLC | SK-OV-3 ovarian | SNB-78 CNS | UACC-257 melanoma | CAKI-1 renal
> 100 µM: all other assays above

COc1ccc(/C(=N/O)C(c2ccc(OC)cc2)C2C(=O)Oc3ccccc32)cc1 (stereo not given)
68.2 µM: SK-MEL-5 melanoma
7.05 µM: COLO 205 colon
11.7 µM: SF-295 CNS
80.6 µM: HOP-92 NSCLC
79.9 µM: DMS 114 small cell lung
not listed: DMS 273 small cell lung | HOP-62 NSCLC | KM20L2 colon | RXF 393 renal | SNB-19 CNS | OVCAR-3 ovarian | XF 498 CNS
> 100 µM: all other assays above

O=C(c1ccccc1)N1CCN2CCN=C(c3ccccc3)C21c1ccccc1 (stereo not given)
not listed: HCT-15 colon | NCI-H522 lung | SF-268 CNS | SN12C renal | SR leukemia | CAKI-1 renal | OVCAR-5 ovarian | XF 498 CNS
> 100 µM: all other assays above
